Experimental data from ChEMBL document CHEMBL1201862, “PubChem BioAssay data set” (2004).
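Dose response: 5 concentrations. Exposure: 48 h. Format: 96-well plates. Endpoint: linear interpolation; highest concentration if not reached. GI50: concentration for 50% inhibition of growth.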 Active and inactive are the calls of the source. Rule as the data show it: active = GI50 up to about 1.1 µM and inactive = higher.

Columns and labels:
Test in all cases: NCI tumour cell line growth inhibition, 48 h
[1] = system: MDA-MB-435
[2] = system: HOP-62
[3] = system: PC-3
[4] = system: MDA-N
[5] = system: SF-295
[6] = system: UACC-62
[7] = system: TK-10
[8] = system: SK-MEL-28
[9] = system: NCI-H23
[10] = system: NCI/ADR-RES
[11] = system: NCI-H226
[12] = system: EKVX
[13] = system: SN12C
[14] = system: HCT-15
[15] = system: UACC-257
[16] = system: SK-OV-3
[17] = system: MDA-MB-231
[18] = system: OVCAR-3
[19] = system: CAKI-1
[20] = system: RXF 393

Row | Structure (SMILES) | GI50 [1] | GI50 [2] | GI50 [3] | GI50 [4] | GI50 [5] | GI50 [6] | GI50 [7] | GI50 [8] | GI50 [9] | GI50 [10] | GI50 [11] | GI50 [12] | GI50 [13] | GI50 [14] [µM] | GI50 [15] | GI50 [16] | GI50 [17] | GI50 [18] | GI50 [19] | GI50 [20]
1 | CCCCC(O)(c1ccccc1)C(O)(c1ccccc1)c1c(F)c(F)c(F)c(F)c1F (stereo not given) | 31.8 µM (inactive) | 17.5 µM (inactive) | 19.1 µM (inactive) | 17.9 µM (inactive) | > 10 µM (inactive) | 17.4 µM (inactive) | 26.4 µM (inactive) | 27 µM (inactive) | 29 µM (inactive) | 19.5 µM (inactive) | 26 µM (inactive) | 17.9 µM (inactive) | 17.1 µM (inactive) | 13.5 | 18.2 µM (inactive) | 21.5 µM (inactive) | 16 µM (inactive) | 17.4 µM (inactive) |  | 
2 | CC1=NN(C(=O)CC(=O)Nc2cccc(Cl)c2)C(=O)C1/N=N/c1ccc(C(=O)O)cc1 (stereo not given) | > 100 µM (inactive) | > 100 µM (inactive) | > 100 µM (inactive) | > 100 µM (inactive) | > 100 µM (inactive) | > 100 µM (inactive) | > 100 µM (inactive) | > 100 µM (inactive) | > 100 µM (inactive) | > 100 µM (inactive) |  | > 100 µM (inactive) | > 100 µM (inactive) | > 100 | > 100 µM (inactive) |  | > 100 µM (inactive) | > 100 µM (inactive) | > 100 µM (inactive) | > 100 µM (inactive)
3 | Cc1ccc(S(=O)(=O)N2CCN(CCO)CCN(S(=O)(=O)c3ccc(C)cc3)CCN(CCO)CC2)cc1 | 15.1 µM (inactive) | 27.5 µM (inactive) | 33 µM (inactive) | 27.2 µM (inactive) | 31.7 µM (inactive) | 18.2 µM (inactive) | 28.2 µM (inactive) | 16.3 µM (inactive) | 18.2 µM (inactive) | 18.5 µM (inactive) | 20.9 µM (inactive) | 18.2 µM (inactive) | 45 µM (inactive) | 18.6 | 10.3 µM (inactive) |  | 21.7 µM (inactive) | 18.7 µM (inactive) | 37.8 µM (inactive) | 13.9 µM (inactive)
4 | Cn1c(=O)oc2cc(C(=O)CN3CCN(Cc4ccc5c(c4)OCO5)CC3)c(Cl)cc21 |  | > 100 µM (inactive) | > 100 µM (inactive) | > 100 µM (inactive) | > 100 µM (inactive) | > 100 µM (inactive) |  |  | > 100 µM (inactive) | > 100 µM (inactive) |  |  | > 100 µM (inactive) | > 100 |  | > 100 µM (inactive) | > 100 µM (inactive) |  | > 100 µM (inactive) | > 100 µM (inactive)
5 | O=c1c2c3ccccc3[nH]c2c2cccc3c2n1CCC3 | 54.6 µM (inactive) | 54.1 µM (inactive) | 26.8 µM (inactive) | 66.5 µM (inactive) | 37.7 µM (inactive) | 36.5 µM (inactive) | 68.9 µM (inactive) | 41.8 µM (inactive) | 45.8 µM (inactive) | 50 µM (inactive) | 50.6 µM (inactive) | 20.6 µM (inactive) | 53.1 µM (inactive) | 32.4 | 83 µM (inactive) | 83.6 µM (inactive) | 28.3 µM (inactive) | 30.6 µM (inactive) |  | 29.4 µM (inactive)
6 | O=C(/C=C/c1ccc(O)c([N+](=O)[O-])c1)CC(=O)/C=C/c1ccc(O)c([N+](=O)[O-])c1 | 36.1 µM (inactive) | 48.9 µM (inactive) | 56.4 µM (inactive) | 86.5 µM (inactive) | 62.5 µM (inactive) | 88.1 µM (inactive) | 92.5 µM (inactive) | 33.9 µM (inactive) | 34.8 µM (inactive) | 35.3 µM (inactive) | > 100 µM (inactive) | 50.9 µM (inactive) | > 100 µM (inactive) | 38.5 | > 100 µM (inactive) | 83.2 µM (inactive) | 23.4 µM (inactive) | 26.6 µM (inactive) |  | 44.4 µM (inactive)
7 | Cc1cccc(/C=N/NC(=S)Nc2ccccc2)n1 | 7.6 µM (inactive) | 2.93 µM (inactive) | 6 µM (inactive) | 4 µM (inactive) | 6.3 µM (inactive) | 3.68 µM (inactive) | 2.43 µM (inactive) | 12.2 µM (inactive) | 6.18 µM (inactive) | 2.88 µM (inactive) | 6.37 µM (inactive) | 5.97 µM (inactive) | 2.8 µM (inactive) | 1.98 | 1.82 µM (inactive) | 9.53 µM (inactive) |  | 1.97 µM (inactive) | 5.19 µM (inactive) | 5.48 µM (inactive)
